{"source": "patent US20200361871A1", "about": "(Enterprise Therapeutics Ltd., priority 2018, published 2020)", "key": {"[1]": {"experiment": "Storage of forms of Compound 36 at 40° C./75% RH in open vials, XRPD", "format": "physicochemical", "conditions": "open vial, 7 days", "method": "Form A was stored at 40° C./75% RH, in an open vial. […] Therefore, Form A is stable to exposure to elevated temperature and humidity for up to 2 weeks and no evidence of a hydrated form was observed.\nOne sample of each of the new forms (Forms B, C, D, E, E+extra peaks, F, G and H) was analysed by ^1H NMR, TGA, DSC and stored at 40° C./75% RH. Results are summarised in Table E with Form A for comparison."}, "[2]": {"biological_target": "human TMEM16A (TMEM16Aabc variant) (Homo sapiens, UniProt Q5XXA6, DEL476-501, form not given)", "sequence (Q5XXA6 with tags, fused parts or gaps DEL476-501)": "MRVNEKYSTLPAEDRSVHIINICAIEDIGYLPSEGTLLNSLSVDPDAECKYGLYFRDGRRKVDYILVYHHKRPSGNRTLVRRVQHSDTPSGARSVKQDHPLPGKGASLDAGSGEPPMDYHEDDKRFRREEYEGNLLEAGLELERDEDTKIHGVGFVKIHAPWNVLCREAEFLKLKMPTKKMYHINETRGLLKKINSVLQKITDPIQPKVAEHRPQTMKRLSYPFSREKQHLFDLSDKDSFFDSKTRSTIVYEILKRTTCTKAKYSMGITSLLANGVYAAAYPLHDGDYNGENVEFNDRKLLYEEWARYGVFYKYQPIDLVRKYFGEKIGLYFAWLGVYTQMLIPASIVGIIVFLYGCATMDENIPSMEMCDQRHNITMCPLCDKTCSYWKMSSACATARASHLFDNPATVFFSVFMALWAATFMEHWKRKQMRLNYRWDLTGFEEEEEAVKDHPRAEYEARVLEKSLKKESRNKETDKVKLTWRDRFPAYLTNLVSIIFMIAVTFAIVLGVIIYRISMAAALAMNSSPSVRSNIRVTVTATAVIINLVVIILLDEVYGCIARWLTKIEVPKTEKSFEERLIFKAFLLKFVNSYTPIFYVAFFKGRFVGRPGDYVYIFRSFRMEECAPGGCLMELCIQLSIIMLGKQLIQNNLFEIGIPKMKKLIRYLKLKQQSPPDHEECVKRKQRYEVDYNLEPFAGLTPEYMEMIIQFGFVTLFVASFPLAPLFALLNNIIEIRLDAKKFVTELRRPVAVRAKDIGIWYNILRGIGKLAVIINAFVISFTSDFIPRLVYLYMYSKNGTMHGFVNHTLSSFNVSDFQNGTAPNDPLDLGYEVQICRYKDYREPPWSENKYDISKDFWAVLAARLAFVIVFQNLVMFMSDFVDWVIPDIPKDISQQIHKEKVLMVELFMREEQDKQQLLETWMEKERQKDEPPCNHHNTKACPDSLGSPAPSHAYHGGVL", "experiment": "Automated whole-cell patch clamp (Qpatch) TMEM16A potentiator assay in FRT cells stably expressing human TMEM16A", "format": "cell-based", "conditions": "for % Potentiation @ 3.33 μM Avg: 3.33 μM solution of test compound, percentage increase of baseline TMEM16A current; for pEC50: calculated EC50, Qpatch TMEM16A current at +70 mV", "method_in_brief": "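Potentiation was read as the rise in peak +70 mV current over baseline (%), from cumulative 5-min additions of compound. Recordings used whole-cell automated patch of FRT cells stably carrying human TMEM16Aabc, with pipette Ca2+ buffered to give ~20% maximal current. EC50 and efficacy came from concentration-response fits.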"}}, "note": "pEC50: −log10 of the molar value. Entries after “also recorded” stand apart in the source; their conditions may differ."}
{"smiles": "C#CC(C)(C)NC(=O)c1cc(NC(=O)Cc2cc(Cl)ccc2O)ccn1", "note": "[Compound 36 Form G, 4-[[2-(5-Chloro-2-hydroxy-phenyl)acetyl]amino]-N-(1,1-dimethylprop-2-ynyl)pyridine-2-carboxamide]", "values": [{"measurement": "Storage at 40° C./75% RH (change of form by XRPD)", "setting": "[1]", "result": "Changed to Form A"}]}
{"smiles": "C#CC(C)(C)NC(=O)c1cc(NC(=O)Cc2cc(Cl)ccc2O)ccn1", "note": "[Compound 36 Form D, 4-[[2-(5-Chloro-2-hydroxy-phenyl)acetyl]amino]-N-(1,1-dimethylprop-2-ynyl)pyridine-2-carboxamide]", "values": [{"measurement": "Storage at 40° C./75% RH (change of form by XRPD)", "setting": "[1]", "result": "converted to a mixture of Form A and Form B; also recorded: Changed to mainly"}]}
{"smiles": "C#CC(C)(C)NC(=O)c1cc(NC(=O)Cc2cc(Cl)ccc2O)ccn1", "note": "[Compound 36 Form C, 4-[[2-(5-Chloro-2-hydroxy-phenyl)acetyl]amino]-N-(1,1-dimethylprop-2-ynyl)pyridine-2-carboxamide]", "values": [{"measurement": "Storage at 40° C./75% RH (change of form by XRPD)", "setting": "[1]", "result": "Changed to mainly"}]}
{"smiles": "C#CC(C)(C)NC(=O)c1cc(NC(=O)Cc2cc(Cl)ccc2O)ccn1", "note": "[Compound 36 Form F, 4-[[2-(5-Chloro-2-hydroxy-phenyl)acetyl]amino]-N-(1,1-dimethylprop-2-ynyl)pyridine-2-carboxamide]", "values": [{"measurement": "Storage at 40° C./75% RH (change of form by XRPD)", "setting": "[1]", "result": "stable; also recorded: No change (7"}]}
{"smiles": "C#CC(C)(C)NC(=O)c1cc(NC(=O)Cc2cc(Cl)ccc2O)ccn1", "note": "[Compound 36 Form B, 4-[[2-(5-Chloro-2-hydroxy-phenyl)acetyl]amino]-N-(1,1-dimethylprop-2-ynyl)pyridine-2-carboxamide]", "values": [{"measurement": "Storage at 40° C./75% RH (change of form by XRPD)", "setting": "[1]", "result": "stable; also recorded: No change (7 days)"}]}
{"smiles": "C#CC(C)(C)NC(=O)c1cc(NC(=O)Cc2cc(Cl)ccc2O)ccn1", "note": "[Compound 36 Form E, 4-[[2-(5-Chloro-2-hydroxy-phenyl)acetyl]amino]-N-(1,1-dimethylprop-2-ynyl)pyridine-2-carboxamide]", "values": [{"measurement": "Storage at 40° C./75% RH (change of form by XRPD)", "setting": "[1]", "result": "Changed to mainly"}]}
{"smiles": "N#CC1(NC(=O)c2cc(NC(=O)Cc3cc(Cl)ccc3O)ccn2)CCC1", "note": "[Example 7.16, 4-[[2-(5-Chloro-2-hydroxy-phenyl)acetyl]amino]-N-(1-cyanocyclobutyl)pyridine-2-carboxamide]", "values": [{"measurement": "% Potentiation @ 3.33 μM Avg", "setting": "[2]", "result": 354, "unit": "%"}, {"measurement": "pEC50", "setting": "[2]", "result": 6.89}]}
{"smiles": "C#CC(C)(C)NC(=O)c1cc(NC(=O)CC2CCOc3ccccc32)ccn1", "note": "(centres unmarked) [Example 79, 4-[(2-Chroman-4-ylacetyl)amino]-N-(1,1-dimethylprop-2-ynyl)pyridine-2-carboxamide]", "values": [{"measurement": "% Potentiation @ 3.33 μM Avg", "setting": "[2]", "result": 60, "unit": "%"}]}
{"smiles": "CC1(NC(=O)c2cccc(NC(=O)Cc3cc(Cl)ccc3O)c2)CCOCC1", "note": "[Example 7.8, 3-[[2-(5-Chloro-2-hydroxy-phenyl)acetyl]amino]-N-(4-methyltetrahydropyran-4-yl)benzamide]", "values": [{"measurement": "% Potentiation @ 3.33 μM Avg", "setting": "[2]", "result": 231, "unit": "%"}, {"measurement": "pEC50", "setting": "[2]", "result": 6.04}]}
{"smiles": "CC(C)(C)c1ccc(O)c(CC(=O)Nc2ccnc(C(=O)NC3(C#N)CCOCC3)c2)c1", "note": "[Example 25.1, 4-[[2-(5-tert-Butyl-2-hydroxy-phenyl)acetyl]amino]-N-(4-cyanotetrahydropyran-4-yl)pyridine-2-carboxamide]", "values": [{"measurement": "% Potentiation @ 3.33 μM Avg", "setting": "[2]", "result": 393, "unit": "%"}, {"measurement": "pEC50", "setting": "[2]", "result": 6.85}]}
{"smiles": "CC(C)(C)NC(=O)c1cc(NC(=O)C2CCc3c(Cl)ccc(O)c32)ccn1", "note": "(single isomer, unassigned) [Example 57b, N-tert-butyl-4-[[(1S) or (1R)-4-chloro-7-hydroxy-indane-1-carbonyl]amino]pyridine-2-carboxamide]", "values": [{"measurement": "% Potentiation @ 3.33 μM Avg", "setting": "[2]", "result": 162, "unit": "%"}, {"measurement": "pEC50", "setting": "[2]", "result": 6.17}]}
{"smiles": "O=C(Cc1cc(Cl)ccc1O)Nc1ccnc(C(=O)N[C@H]2CCC[C@H]2O)c1", "note": "[Example 35.19, 4-[[2-(5-Chloro-2-hydroxy-phenyl)acetyl]amino]-N-[(1S,2R)-2-hydroxycyclopentyl]pyridine-2-carboxamide]", "values": [{"measurement": "% Potentiation @ 3.33 μM Avg", "setting": "[2]", "result": 248, "unit": "%"}, {"measurement": "pEC50", "setting": "[2]", "result": 6.33}]}
{"smiles": "CC(C)(C)NC(=O)c1cc(NC(=O)Cc2ccccc2O)ccn1", "note": "[Example 1, N-tert-Butyl-4-[[2-(2-hydroxyphenyl)acetyl]amino]pyridine-2-carboxamide]", "values": [{"measurement": "% Potentiation @ 3.33 μM Avg", "setting": "[2]", "result": 203, "unit": "%"}, {"measurement": "pEC50", "setting": "[2]", "result": 6.68}]}
{"smiles": "CC(C)C(C)(C#N)NC(=O)c1cc(NC(=O)Cc2cc(Cl)ccc2O)ccn1", "note": "(centres unmarked) [Example 37, 4-[[2-(5-Chloro-2-hydroxy-phenyl)acetyl]amino]-N-(1-cyano-1,2-dimethyl-propyl)pyridine-2-carboxamide]", "values": [{"measurement": "% Potentiation @ 3.33 μM Avg", "setting": "[2]", "result": 352, "unit": "%"}, {"measurement": "pEC50", "setting": "[2]", "result": 6.92}]}
{"smiles": "CC(C)(C)NC(=O)c1cccc(NC(=O)Cc2cc(Br)ccc2O)c1", "note": "[Example 2.10, 3-[[2-(5-Bromo-2-hydroxy-phenyl)acetyl]amino]-N-tert-butyl-benzamide]", "values": [{"measurement": "% Potentiation @ 3.33 μM Avg", "setting": "[2]", "result": 133, "unit": "%"}, {"measurement": "pEC50", "setting": "[2]", "result": 6.34}]}
{"smiles": "C#CC(C)(C)NC(=O)c1cc(NC(=O)Cc2ccc(Cl)c(O)c2)ccn1", "note": "[Example 92.2, 4-[[2-(4-Chloro-3-hydroxy-phenyl)acetyl]amino]-N-(1,1-dimethylprop-2-ynyl)pyridine-2-carboxamide]", "values": [{"measurement": "% Potentiation @ 3.33 μM Avg", "setting": "[2]", "result": 71, "unit": "%"}, {"measurement": "pEC50", "setting": "[2]", "result": 8.00}]}
{"smiles": "C#CC(C)(C)NC(=O)c1cc(NC(=O)Cc2cc(F)ccc2F)ccn1", "note": "[Example 77, 4-[[2-(2,5-Difluorophenyl)acetyl]amino]-N-(1,1-dimethylprop-2-ynyl)pyridine-2-carboxamide]", "values": [{"measurement": "% Potentiation @ 3.33 μM Avg", "setting": "[2]", "result": 139, "unit": "%"}, {"measurement": "pEC50", "setting": "[2]", "result": 6.39}]}
{"smiles": "COC(C)c1cc(Cl)cc(CC(=O)Nc2ccnc(C(=O)NC(C)(C)C)c2)c1O", "note": "(centres unmarked) [Example 62, N-tert-Butyl-4-[[2-[5-chloro-2-hydroxy-3-(1-methoxyethyl)phenyl]acetyl]amino] pyridine-2-carboxamide]", "values": [{"measurement": "% Potentiation @ 3.33 μM Avg", "setting": "[2]", "result": 99, "unit": "%"}]}
{"smiles": "CC(C)(C)NC(=O)c1cc(NC(=O)C2CCc3c(Cl)ccc(O)c32)ccn1", "note": "(single isomer, unassigned) [Example 57a, N-tert-butyl-4-[[(1S) or (1R)-4-chloro-7-hydroxy-indane-1-carbonyl]amino]pyridine-2-carboxamide]", "values": [{"measurement": "% Potentiation @ 3.33 μM Avg", "setting": "[2]", "result": 285, "unit": "%"}, {"measurement": "pEC50", "setting": "[2]", "result": 6.29}]}
{"smiles": "N#CC1(NC(=O)c2cc(NC(=O)Cc3ccc4ncccc4c3)ccn2)CCOCC1", "note": "[Example 23.16, N-(4-Cyanotetrahydropyran-4-yl)-4-[[2-(6-quinolyl)acetyl]amino]pyridine-2-carboxamide]", "values": [{"measurement": "% Potentiation @ 3.33 μM Avg", "setting": "[2]", "result": 68, "unit": "%"}, {"measurement": "pEC50", "setting": "[2]", "result": 5.85}]}
{"smiles": "CC(=O)Nc1ccc(C(=O)Nc2ccnc(C(=O)NC(C)(C)C#N)c2)cc1", "note": "[Example 83.29, 4-[(4-Acetamidobenzoyl)amino]-N-(1-cyano-1-methyl-ethyl)pyridine-2-carboxamide]", "values": [{"measurement": "% Potentiation @ 3.33 μM Avg", "setting": "[2]", "result": -9, "unit": "%"}]}
{"smiles": "O=C(Cc1cc(Cl)ccc1O)Nc1ccnc(C(=O)N[C@@]2(CO)CCOC2)c1", "note": "(single isomer, unassigned) [Example 35b, 4-[[2-(5-Chloro-2-hydroxy-phenyl)acetyl]amino]-N-[(3R)-3-(hydroxymethyl)tetrahydrofuran-3-yl]pyridine-2-carboxamide or 4-[[2-(5-chloro-2-hydroxy-phenyl)acetyl]amino]-N-[(3S)-3-(hydroxymethyl)tetrahydrofuran-3-yl]pyridine-2-carboxamide]", "values": [{"measurement": "% Potentiation @ 3.33 μM Avg", "setting": "[2]", "result": 190, "unit": "%"}, {"measurement": "pEC50", "setting": "[2]", "result": 6.51}]}
